Measurements as given in EP1733731A1, “New uses of Glycerol derivatives in particular in cosmetics” (AGRO INDUSTRIE RECHERCHES ET DEVELOPPEMENTS (A.R.D.), priority 2005, dated 2006).

Target: T1, MMP-2 (Homo sapiens, UniProt P08253)
T1 construct: La proMMP-2 recombinante (12,5 ng/mL) est activée par l'APMA 10 mM pendant 16 heures à 4°C
T1 sequence (P08253 110-660): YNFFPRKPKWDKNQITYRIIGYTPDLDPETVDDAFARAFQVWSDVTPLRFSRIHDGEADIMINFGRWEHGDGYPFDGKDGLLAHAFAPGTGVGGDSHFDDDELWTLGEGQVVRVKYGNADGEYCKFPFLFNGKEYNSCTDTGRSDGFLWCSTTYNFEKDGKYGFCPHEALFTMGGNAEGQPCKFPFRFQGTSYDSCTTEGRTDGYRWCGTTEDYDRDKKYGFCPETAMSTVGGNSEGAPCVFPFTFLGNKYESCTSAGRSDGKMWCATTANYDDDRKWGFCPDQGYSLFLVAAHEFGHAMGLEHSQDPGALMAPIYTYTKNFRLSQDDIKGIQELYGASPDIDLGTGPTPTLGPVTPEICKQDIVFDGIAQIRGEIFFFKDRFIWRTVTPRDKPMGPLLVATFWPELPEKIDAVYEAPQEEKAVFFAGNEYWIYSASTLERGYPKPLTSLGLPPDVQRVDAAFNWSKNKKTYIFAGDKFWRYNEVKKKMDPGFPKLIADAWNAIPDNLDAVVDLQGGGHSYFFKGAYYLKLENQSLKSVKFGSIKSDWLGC
Experiment: MMP-2 activity on fluorescent synthetic substrate
Assay type: biochemical
Details: 25 µg/mL
Excerpt: L'inhibition de l'activité des gélatinases MMP-2 et MMP-9 par les acides gras insaturés à longue chaîne a pu être montré sur des coupes de peau. Ce phénomène implique à la fois des domaines spécifiques des gélatinases : les "Collagen Binding Domain" (CBD) et la double liaison des acides gras. L'interaction entre les gélatinases, via ces sites particuliers que sont les exosites (CBD), et l'acide gras, via son insaturation, entraîne une perte d'activité des gélatinases in vitro comme in vivo. La présence de double liaisons au niveau des chaînes latérales de ces glycolipides a conduit à cribler l'ensemble des composés de l'invention sur l'activité de la gélatinase-A ou MMP-2, car cette enzyme, bien qu'elle ne soit pas surexprimée au cours des vieillissements par les cellules dermiques, participe à la dégradation du tissu élastique responsable de la formation de rides. […]
La proMMP-2 recombinante (12,5 ng/mL) est activée par l'APMA 10 mM pendant 16 heures à 4°C puis préincubée 10 min en présence des différentes fractions et composés à tester : le substrat synthétique spécifique de la MMP-2 (Référence : M-1895, Bachem) est ensuite ajouté, à la concentration de 2 µM. Le clivage de ce substrat est estimé par mesure de la fluorescence émise après clivage (λexc = 326 nm; λem = 465 nm), à raison d'une lecture toutes les 2 minutes pendant 30 minutes. […]

CCCCC/C=C\C/C=C\CCCCCCCCOC[C@H](CO[C@@H]1O[C@H](COC(=O)CCCCCCCCCCCCCCC)[C@H](O)[C@H](O)[C@H]1O)OCCCCCCCC/C=C\C/C=C\CCCCC [ED23-11, 1,2-di-O-linoléyl-3-O-[6'-O-palmitoyl-β-D-galactopyranosyl]-sn-glycérol]
MMP-2 (Vi/Vo): > 1
